Biological target: T1, Interleukin-1 receptor-associated kinase 4 (Homo sapiens, UniProt Q9NWZ3)
T1 sequence (Q9NWZ3 whole entry): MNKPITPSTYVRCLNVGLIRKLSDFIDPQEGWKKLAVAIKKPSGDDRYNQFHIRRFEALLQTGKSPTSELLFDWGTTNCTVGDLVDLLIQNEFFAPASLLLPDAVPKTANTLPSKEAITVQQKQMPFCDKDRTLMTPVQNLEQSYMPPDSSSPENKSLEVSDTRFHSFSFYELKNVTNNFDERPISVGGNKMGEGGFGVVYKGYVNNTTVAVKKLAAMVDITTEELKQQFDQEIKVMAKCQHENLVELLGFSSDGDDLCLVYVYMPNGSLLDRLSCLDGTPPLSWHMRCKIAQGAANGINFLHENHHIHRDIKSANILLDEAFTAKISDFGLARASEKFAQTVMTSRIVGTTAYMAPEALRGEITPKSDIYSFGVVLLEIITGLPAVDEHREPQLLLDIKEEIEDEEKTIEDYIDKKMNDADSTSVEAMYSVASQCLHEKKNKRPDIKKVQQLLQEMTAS
Assay: Not found
Excerpt: Not found

IC50 [nM] | Structure (SMILES)
63 | CC(C)Nc1cc(-c2cnc3cc(Cl)cnn23)ncc1-c1cnn(C2CCOCC2)c1 [US10202390, Example 2]
10 | CC(C)(O)CCc1cn(-c2cnc(-c3cnn4cc(C#N)cnc34)cc2NC2COC2)nn1 [US10202390, Example 26]
